Results: article PMC11672400, “Synthesis, Spectroscopic Characterization, Structural Analysis, and Evaluation of Anti-Tumor, Antimicrobial, and Antibiofilm Activities of Halogenoaminopyrazoles Derivatives” (Antibiotics, 2024)
Values after ≈ are worked out from the molar mass of the structure shown. Where two headings read alike, the source gives them in different places.

Experiments:
[1] = test system: HEp-2 epithelial tumor cells; experiment: MTT cell viability / anti-tumor activity; settings: for viability at 3.1 µg/mL / viability at 6.25 µg/mL / viability at 12.5 µg/mL / viability at 25 µg/mL / viability at 50 µg/mL / IC50: Homo sapiens; for viability at 3.1 µg/mL / viability at 6.25 µg/mL / viability at 12.5 µg/mL / viability at 25 µg/mL / viability at 50 µg/mL: read-out: Cell viability on Hep2 cells (%); for IC50: read-out: IC50 µg/mL on HEp-2 Cells 48 h, HEp-2 epithelial tumor cells, MTT, 48 h
Description: The cytotoxicity of the halogenoaminopyrazole derivatives 4a–f and 5a–e was tested on L929 mouse fibroblast cells, and their anti-tumor activity was evaluated on the human carcinoma epithelial cell line HEp-2. The experiments were performed in a concentration range of 3.1–50 μg/mL.
The MTT test was used, 3-(4,5-dimethylthiazol-2-yl)-2,5-diphenyl tetrazolium bromide), which is reduced to insoluble purple-blue formazan crystals precipitated by living cells. Cell viability assessed using the MTT assay reflects the activity of mitochondrial enzymes in treated cells compared to the control culture of untreated cells.
To assess the biocompatibility of the substances, a stable mouse fibroblast cell line, NCTC (clone 929), was grown in minimal essential medium (MEM) with 10% fetal bovine serum (FBS) and 2 mM L-glutamine, along with 100 U/mL penicillin, 100 µg/mL streptomycin, and 500 µg/mL neomycin. The concentration of the compounds used was 0.06 g/2 mL DMSO.
In cytotoxicity experiments, compound solutions were utilized at concentrations of 3.1 μg/mL, 6.25 μg/mL, 12.5 μg/mL, 25 μg/mL, and 50 μg/mL. The NCTC cell suspension was placed into 96-well culture plates with a concentration of 4 × 10^4 cells/mL and incubated at 37 °C for 24 h in a 5% CO2 humidified atmosphere. The compounds under study were placed in sets of three at varying concentrations ranging from 3.1 μg/mL to 50 μg/mL in every well, and the plates were then kept under standard conditions for 48 h. Cell viability was determined through the utilization of the MTT assay. Next, the MTT solution was removed, then isopropanol was added to solubilize the formazan crystals. The colored solution was then measured for absorbance at 570 nm using a Berthold Technologies, LB 940 microplate reader (Bad Wildbad, Germany). The outcomes were determined based on Formula (1) while considering that the recorded optical density is directly related to the number of viable cells in the cell culture being examined [35, 36]. % cell viability = (OD sample/OD control) × 100%(1)
For each tested compound, a graph representing percentage cell viability versus concentrations (in the range 3.1–50 µg/mL) was obtained. Then, the IC50 value was calculated by using ED50 plus V1.0 software.

[2] = test system: Staphylococcus aureus ATCC25923; experiment: MIC by serial microdilution in liquid medium; assay type: cell-based; settings: 24 h, 37 °C; for MIC: Staphylococcus aureus, ATCC25923, read-out: Minimum inhibitory concentration, Staphylococcus aureus ATCC25923
Summary of the method: (§1)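 Twofold serial dilutions from a DMSO stock (10 mg/mL) in Tryptone Soy Broth, inoculated with 10 µL of a 10^6 CFU/mL suspension, incubated 24 h at 37 °C. Growth judged visually and by OD 620 nm; MIC (µg/mL) is the lowest concentration without growth, run in triplicate.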

[3] = test system: Pseudomonas aeruginosa ATCC27853; experiment: MIC by serial microdilution in liquid medium; assay type: cell-based; settings: Pseudomonas aeruginosa, ATCC27853; 24 h, 37 °C; read-out: Minimum inhibitory concentration, Pseudomonas aeruginosa ATCC27853
Summary of the method: as §1

[4] = test system: Enterococcus faecalis ATCC29212; experiment: MIC by serial microdilution in liquid medium; assay type: cell-based; settings: Enterococcus faecalis, ATCC29212; 24 h, 37 °C; read-out: Minimum inhibitory concentration, Enterococcus faecalis ATCC29212
Summary of the method: as §1

[5] = test system: Escherichia coli ATCC25922; experiment: MIC by serial microdilution in liquid medium; assay type: cell-based; settings: 24 h, 37 °C; for MIC: Escherichia coli, ATCC25922, read-out: Minimum inhibitory concentration, Escherichia coli ATCC25922
Summary of the method: as §1

[6] = test system: Staphylococcus aureus ATCC25923; experiment: Qualitative evaluation of antimicrobial activity (inhibition zone, spot on agar); assay type: cell-based; set-up: key: (+) inhibited bacterial growth; (-) did not inhibit bacterial growth; settings: 0.06 g/2 mL DMSO, 5 µL spot
Description: (§2) For testing the antimicrobial/antibiofilm activity, the concentration of the studied compounds was identical to 0.06 g/2 mL DMSO. 0.5 Standard McFarland suspension was used, which was inoculated onto Mueller Hinton agar plates, (Remel, Lenexa, KS, USA), 5 µL of each compound was spotted and incubated overnight at 37 °C. Antimicrobial activity was observed as zones of inhibition formed around the spot.

[7] = test system: Pseudomonas aeruginosa ATCC27853; experiment: as above; assay type: cell-based; set-up: key: (+) inhibited bacterial growth; (-) did not inhibit bacterial growth; settings: 0.06 g/2 mL DMSO, 5 µL spot
Description: as §2

[8] = test system: Enterococcus faecalis ATCC29212; experiment: as above; assay type: cell-based; set-up: key: (+) inhibited bacterial growth; (-) did not inhibit bacterial growth; settings: 0.06 g/2 mL DMSO, 5 µL spot
Description: as §2

[9] = test system: Escherichia coli ATCC25922; experiment: as above; assay type: cell-based; set-up: key: (+) inhibited bacterial growth; (-) did not inhibit bacterial growth; settings: 0.06 g/2 mL DMSO, 5 µL spot
Description: as §2

[10] = test system: Staphylococcus aureus ATCC25923; experiment: Antibiofilm assay (crystal violet), MBIC; assay type: cell-based; settings: 24 h, 37 °C; for minimal effective concentration: Staphylococcus aureus, ATCC25923, read-out: Minimum biofilm inhibition concentration (MBIC), Staphylococcus aureus ATCC25923
Summary of the method: (§3)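 Biofilms grown in nutrient broth with test substances for 24 h at 37 °C. After rinsing with sterile physiological water, attached cells were fixed 5 min with methanol, then crystal violet stained.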

[11] = test system: Pseudomonas aeruginosa ATCC27853; experiment: Antibiofilm assay (crystal violet), MBIC; assay type: cell-based; settings: 37 °C; for minimal effective concentration: Pseudomonas aeruginosa, ATCC27853, 24 h, read-out: Minimum biofilm inhibition concentration (MBIC), Pseudomonas aeruginosa ATCC27853
Summary of the method: as §3

[12] = test system: Enterococcus faecalis ATCC29212; experiment: Antibiofilm assay (crystal violet), MBIC; assay type: cell-based; settings: Enterococcus faecalis, ATCC29212, 24 h, 37 °C, read-out: Minimum biofilm inhibition concentration (MBIC), Enterococcus faecalis ATCC29212
Summary of the method: as §3

[13] = test system: Escherichia coli ATCC25922; experiment: Antibiofilm assay (crystal violet), MBIC; assay type: cell-based; settings: 37 °C; for minimal effective concentration: Escherichia coli, ATCC25922, 24 h, read-out: Minimum biofilm inhibition concentration (MBIC), Escherichia coli ATCC25922
Summary of the method: as §3

[14] = MTT cell viability / cytotoxicity on normal fibroblasts; assay type: cell-based, mouse; settings: mouse
From the text: (§4) Merck chemicals were utilized.
(§5) Untreated cells were used as control, considered 100% viable cells.

[15] = test system: NCTC (clone 929) mouse fibroblast cells; experiment: as above; assay type: cell-based; settings: for IC50: Mus musculus, NCTC clone 929, NCTC normal fibroblasts, MTT, 48 h
From the text: as §4, §5

[16] = NCTC clone 929 (L929) mouse fibroblast cells
[17] = read-out: Cell viability on NCTC cells (%)

## Cc1nn(CNc2ccc(F)cc2)c(C)c1[N+](=O)[O-] [4a, N-[(3,5-dimetyl-4-nitro-1H-pyrazol-1-yl)-methyl]-4-fluoroaniline]
[1]; HEp-2, 24 h
  viability at 3.1 µg/mL: 99.1 ± 3.42%
  viability at 6.25 µg/mL: 94.4 ± 1.19%
  viability at 12.5 µg/mL: 93.38 ± 0.92%
  viability at 25 µg/mL: 91.3 ± 3.73%
  viability at 50 µg/mL: 73.2 ± 2.71%
[1]; HEp-2, 48 h
  viability at 3.1 µg/mL: 93.05 ± 0.78%
  viability at 6.25 µg/mL: 89 ± 1.5%
  viability at 12.5 µg/mL: 83.8 ± 2.3%
  viability at 25 µg/mL: 72.3 ± 1.99%
  viability at 50 µg/mL: 36.4 ± 1.45%
  IC50: 40.2 ± 1.26 µg/mL (≈ 152 µM)
[2]
  Minimum inhibitory concentration, Staphylococcus aureus ATCC25923: 230 ± 0.13 µg/mL (≈ 870 µM)
  MIC: 230 µg/mL (≈ 870 µM)
[3]
  MIC: 930 ± 0.27 µg/mL (≈ 3520 µM)
[4]
  MIC: 930 ± 0.25 µg/mL (≈ 3520 µM)
[5]
  MIC: 930 ± 0.14 µg/mL (≈ 3520 µM)
other
  melting point: 117 to 119 °C
[6]
  Qualitative antimicrobial activity, Staphylococcus aureus ATCC25923: +
[7]
  Qualitative antimicrobial activity, Pseudomonas aeruginosa ATCC27853: +
[8]
  Qualitative antimicrobial activity, Enterococcus faecalis ATCC29212: -
[9]
  Qualitative antimicrobial activity, Escherichia coli ATCC25922: +
[10]
  Minimum biofilm inhibition concentration (MBIC), Staphylococcus aureus ATCC25923: 230 ± 0.11 µg/mL
  minimal effective concentration: 230 µg/mL
[11]
  minimal effective concentration: 930 ± 0.28 µg/mL
[12]
  minimal effective concentration: 930 ± 0.27 µg/mL
[13]
  minimal effective concentration: 930 ± 0.05 µg/mL
[14]; [16]
  viability at 24 h, 3.1 µg/mL: 99.6 ± 1.38%
  viability at 24 h, 6.25 µg/mL: 99.3 ± 2.2%
  viability at 48 h, 6.25 µg/mL: 111%
  viability at 24 h, 12.5 µg/mL: 99 ± 2.51%
  viability at 48 h, 12.5 µg/mL: 101 ± 1.48%
  viability at 24 h, 25 µg/mL: 90.2 ± 1.71%
  viability at 48 h, 25 µg/mL: 73.5 ± 2.96%
  viability at 24 h, 50 µg/mL: 62.7 ± 1.88%
  viability at 48 h, 50 µg/mL: 47.5 ± 1.31%
[15]; 6.25 µg/mL, 48h
  Cell viability on NCTC cells (%): 109.13±3.80%
[15]
  IC50: 46.4 ± 1.33 µg/mL (≈ 176 µM)

## Cc1nn(CN(Cn2nc(C)c([N+](=O)[O-])c2C)c2ccc(Cl)cc2)c(C)c1[N+](=O)[O-] [5b, N,N-bis-[(3,5-dimetyl-4-nitro-1H-pyrazol-1-yl)-methyl]-4-chloroaniline]
[1]; HEp-2 epithelial tumor cells, MTT, 48 h
  IC50 µg/mL on HEp-2 Cells 48 h: >50 µg/mL
[1]; HEp-2, 24 h
  viability at 3.1 µg/mL: 105 ± 1.52%
  viability at 6.25 µg/mL: 104 ± 2.25%
  viability at 12.5 µg/mL: 102 ± 3.76%
  viability at 25 µg/mL: 90.8 ± 2.84%
  viability at 50 µg/mL: 65.3 ± 2.02%
[1]; HEp-2, 48 h
  viability at 3.1 µg/mL: 110 ± 1.25%
  viability at 6.25 µg/mL: 94.7 ± 3.8%
  viability at 12.5 µg/mL: 87.1 ± 0.92%
  viability at 25 µg/mL: 74.8 ± 0.33%
  viability at 50 µg/mL: 54.6 ± 1.17%
  IC50: 26.6 to 47.3 µg/mL (≈ 61.3 to 109 µM)
[2]
  Minimum inhibitory concentration, Staphylococcus aureus ATCC25923: 460 ± 0.01 µg/mL (≈ 1060 µM)
  MIC: 460 µg/mL (≈ 1060 µM)
[3]
  MIC: 460 ± 0.58 µg/mL (≈ 1060 µM)
[4]
  MIC: 460 ± 0.54 µg/mL (≈ 1060 µM)
[5]
  Minimum inhibitory concentration, Escherichia coli ATCC25922: 460 ± 0.27 µg/mL (≈ 1060 µM)
  MIC: 460 µg/mL (≈ 1060 µM)
other
  melting point: 132 to 134 °C
[6]
  Qualitative antimicrobial activity, Staphylococcus aureus ATCC25923: +
[7]
  Qualitative antimicrobial activity, Pseudomonas aeruginosa ATCC27853: +
[8]
  Qualitative antimicrobial activity, Enterococcus faecalis ATCC29212: +
[9]
  Qualitative antimicrobial activity, Escherichia coli ATCC25922: +
[10]
  Minimum biofilm inhibition concentration (MBIC), Staphylococcus aureus ATCC25923: 460 ± 0.01 µg/mL
  minimal effective concentration: 460 µg/mL
[11]; 24 h
  Minimum biofilm inhibition concentration (MBIC), Pseudomonas aeruginosa ATCC27853: 460 ± 0.51 µg/mL
[11]
  minimal effective concentration: 460 µg/mL
[13]; 24 h
  Minimum biofilm inhibition concentration (MBIC), Escherichia coli ATCC25922: 460 ± 0.03 µg/mL
[13]
  minimal effective concentration: 460 µg/mL
[14]; [17]
  viability at 24 h, 3.1 µg/mL: 99.1 ± 3.42%
  viability at 48 h, 3.1 µg/mL: 100 ± 2.53%
  viability at 24 h, 6.25 µg/mL: 103 ± 3.06%
  viability at 48 h, 6.25 µg/mL: 94.9 ± 2.14%
  viability at 24 h, 12.5 µg/mL: 98.8 ± 3.47%
  viability at 48 h, 12.5 µg/mL: 84 ± 3.77%
  viability at 24 h, 25 µg/mL: 70 ± 2.51%
  viability at 48 h, 25 µg/mL: 55.2 ± 1.6%
  viability at 24 h, 50 µg/mL: 48.6 ± 1.35%
  viability at 48 h, 50 µg/mL: 28.1 ± 0.35%
[15]
  IC50: 29.8 ± 0.32 µg/mL (≈ 68.7 µM)

## Cc1nn(CN(Cn2nc(C)c([N+](=O)[O-])c2C)c2ccc(I)cc2)c(C)c1[N+](=O)[O-] [5d, N,N-bis-[(3,5-dimetyl-4-nitro-1H-pyrazol-1-yl)-methyl]-4-iodoaniline]
[1]; HEp-2, 24 h
  viability at 3.1 µg/mL: 88.45 ± 0.28%
  viability at 6.25 µg/mL: 89.15 ± 0.73%
  viability at 12.5 µg/mL: 91.41 ± 0.69%
  viability at 25 µg/mL: 89.86 ± 0.48%
  viability at 50 µg/mL: 89.86 ± 0.16%
[1]; HEp-2, 48 h
  viability at 3.1 µg/mL: 96.17 ± 0.13%
  viability at 6.25 µg/mL: 78.61 ± 0.67%
  viability at 12.5 µg/mL: 61.51 ± 0.34%
  viability at 25 µg/mL: 45.75 ± 0.33%
  viability at 50 µg/mL: 20.8%
  IC50: 26.61 ± 0.11 µg/mL (≈ 50.7 µM)
[2]
  MIC: 1870 ± 0.07 µg/mL (≈ 3560 µM)
[3]
  MIC: 1870 ± 0.04 µg/mL (≈ 3560 µM)
[4]
  MIC: 1870 ± 0.05 µg/mL (≈ 3560 µM)
[5]
  MIC: 1870 ± 0.04 µg/mL (≈ 3560 µM)
[6]
  Qualitative antimicrobial activity, Staphylococcus aureus ATCC25923: -
[7]
  Qualitative antimicrobial activity, Pseudomonas aeruginosa ATCC27853: -
[8]
  Qualitative antimicrobial activity, Enterococcus faecalis ATCC29212: -
[9]
  Qualitative antimicrobial activity, Escherichia coli ATCC25922: -
[10]
  minimal effective concentration: 930 ± 0.15 µg/mL
[11]
  minimal effective concentration: 930 ± 0.15 µg/mL
[12]
  minimal effective concentration: 1870 ± 0.15 µg/mL
[13]
  minimal effective concentration: 1870 ± 0.15 µg/mL
[14]; [17]
  viability at 24 h, 3.1 µg/mL: 103 ± 1.49%
  viability at 48 h, 3.1 µg/mL: 93.58 ± 0.71%
  viability at 24 h, 6.25 µg/mL: 108 ± 2.4%
  viability at 48 h, 6.25 µg/mL: 103%
  viability at 24 h, 12.5 µg/mL: 106 ± 2.05%
  viability at 48 h, 12.5 µg/mL: 102 ± 3.03%
  viability at 24 h, 25 µg/mL: 98.4 ± 3.87%
  viability at 48 h, 25 µg/mL: 95.8 ± 2.12%
  viability at 24 h, 50 µg/mL: 83 ± 2.9%
  viability at 48 h, 50 µg/mL: 88.3 ± 1.55%
[15]
  IC50: > 50 µg/mL
